Assay results: the SangsterLogP compilation

Test: method code SF-AS, from DOI: 10.1021/jo00922a017
Settings: pH 1.0
Work on O=S(=O)(Nc1ccc(-c2ccccc2)cc1)C(F)(F)F yielded a logD of 4.97. CS(=O)(=O)c1cccc(NS(=O)(=O)C(F)(F)F)c1 gave a logD of 1.85. Compound CC(=O)c1ccc(NS(=O)(=O)C(F)(F)F)cc1 has a logD of 2.83. With O=S(=O)(CF)Nc1ccc(Cl)cc1 the logD was 2.25. Work on O=S(=O)(Nc1ccccc1)C(F)(F)F yielded a logD of 3.05. O=S(=O)(Nc1cccc(Br)c1)C(F)(F)F showed a logD of 3.82. Compound CC(=O)c1cccc(NS(=O)(=O)C(F)(F)F)c1 has a logD of 2.78. For O=S(=O)(Nc1ccc(Cl)cc1Cl)C(F)(F)F, the logD was 3.88. With CS(=O)(=O)Nc1ccc(Cl)cc1 the logD was 1.85. CS(=O)(=O)c1ccc(NS(=O)(=O)C(F)(F)F)cc1 showed a logD of 1.99. For O=S(=O)(Nc1ccc(Cl)cc1)C(F)F, the logD was 2.84. In the case of O=S(=O)(Nc1cccc(C(F)(F)F)c1)C(F)(F)F, the logD was 4.5. COc1cccc(NS(=O)(=O)C(F)(F)F)c1 showed a logD of 3.13. For O=S(=O)(Nc1ccc(F)cc1)C(F)(F)F, the logD was 3.25. For O=S(=O)(Nc1cccc(F)c1)C(F)(F)F, the logD was 3.42. O=S(=O)(Nc1ccccc1)C(F)F gave a logD of 1.95. Compound O=S(=O)(Nc1cccc(Cl)c1)C(F)(F)F has a logD of 4. Compound O=S(=O)(Nc1ccc(F)cc1F)C(F)(F)F has a logD of 3.06. Compound O=S(=O)(Nc1cccc(O)c1)C(F)(F)F has a logD of 2.51. For O=S(=O)(Nc1ccc(Cl)cc1)C(F)(F)F, the logD was 3.96. Compound O=S(=O)(CF)Nc1ccccc1 has a logD of 1.35. In the case of O=S(=O)(Nc1ccc(C(F)(F)F)cc1)C(F)(F)F, the logD was 4.47. Work on Cc1ccc(NS(=O)(=O)C(F)(F)F)cc1 yielded a logD of 3.6. O=C(c1ccccc1)c1ccc(NS(=O)(=O)C(F)(F)F)cc1 showed a logD of 4.28. For COc1ccc(NS(=O)(=O)C(F)(F)F)cc1, the logD was 3. With O=S(=O)(Nc1ccc(I)cc1)C(F)(F)F the logD was 4.39.
